The conditions of data set [1]: within one hour of administration; cited from earlier work.
The subject of data set [2] is fluid percussion injury mice. Description: Conditioned fear response (CFR) after fluid percussion injury, GTA by oral gavage. Format: in vivo, mouse. The settings on record: 5 mg/kg GTA oral gavage for 5 days, CFR on day 7. As for the experimental part:
A fluid percussion injury assay was performed. Briefly, a craniotomy was performed on anesthetized mice using a 3 mm trephine and a Luer-Hoc needle hub attached to the skull and capped. The following day, a fluid percussion injury device was employed to deliver a pulse of saline through the hub at a pressure between 1.4-2.14 atm, producing a mild to moderate percussion injury. Sham animals received all anesthesia and surgical procedures except for the fluid pulse.
Mice were allowed to recover for one day. Mice were then treated with 5 mg/kg of glyceryl triacetate (GTA) via oral gavage for 5 days. The conditioned fear response (CFR) assay was performed on day 7.

The structures appear in SMILES notation.

For the molecule `CC(=O)OCC(COC(C)=O)OC(C)=O` [GTA, glyceryl triacetate], the “increase of acetate levels in the brain” value in data set [1] is given as “over 15 fold”. Also, the “conditioned fear response (freezing)” value in data set [2] is “showed a similar fear response to sham animals and a statistically superior (P<0.05) response to those mice receiving the brain injury without treatment”.
